# Tested on: organophosphorous agent resistant two-spotted spider mites
# Test: Effect on Two-spotted Spider Mite (spray on kidney bean leaves)
# Format: in vivo
# Conditions: 125 ppm, water dispersible powder of Formulation Example 1 sprayed, 17 female adults, 25° C., 65% humidity, 3 days
# Description: Effect on Two-spotted Spider Mite
# 17 female adults of organophosphorous agent resistant two-spotted spider mites were inoculated onto the first leaves of kidney beans seeded onto 3.5 inch pots and germinated 7 to 10 days before, onto which each of liquid agents, diluted with water so as to adjust the respective concentration of the chemical compounds to 125 ppm according to the formulation of the water dispersible powder shown in the aforementioned Formulation Example 1, was sprayed. After they were left in a thermostatic chamber at 25° C. in 65% humidity for 3 days, the rate of killed adults was investigated. The examination was repeated twice. As the results, the following chemical compounds killed 100% of the adults.
row,Structure (SMILES),rate of killed adults [%]
1,FC(F)(F)c1ccc(N2CCC(Oc3ccc(C(F)(F)F)cc3CCl)CC2)nc1 [1-81],100
2,CCC(C)C(O)c1cc(C(F)(F)F)ccc1OC1CC2CCC(C1)N2c1ccc(C(F)(F)F)cn1 (stereo not drawn) [2-194],100
3,FC(F)COc1cc(C(F)(F)F)ccc1OC1CC2CCC(C1)N2c1ccc(C(F)(F)F)cn1 (stereo not drawn) [2-246],100
4,CC(=O)OCCOc1cc(C(F)(F)F)ccc1OC1C2CCC1CN(c1ccc(C(F)(F)F)cn1)C2 (stereo not drawn) [5-134],100
5,CON=C(C)COc1cc(C(F)(F)F)ccc1OC1C2CCC1CN(c1ccc(C(F)(F)F)cn1)C2 (stereo not drawn) [5-184],100
6,CC1(C)COC(c2cc(C(F)(F)F)ccc2OC2CC3CCC(C2)N3c2ccc(C(F)(F)F)cn2)=N1 (stereo not drawn) [2-210],100
7,"CCCOc1cc(C(F)(F)F)ccc1OC1CC2CCC(C1)N2c1ccc(C(F)(F)F)c[n+]1[O-] (stereo not drawn) [2-83, 3α-[2-propoxy-4-(trifluoromethyl)phenoxy]-8-[5-(trifluoromethyl)-2-pyridyl-1-oxy]-8-azabicyclo[3.2.1]octane]",100
8,"CCCOc1cc(C(F)(F)F)ccc1OC1CC2CCC(C1)[N+]2([O-])c1ccc(C(F)(F)F)cn1 (stereo not drawn) [2-84, 3α-[2-propoxy-4-(trifluoromethyl)phenoxy]-8-oxy-8-[5-(trifluoromethyl)-2-pyridyl]-8-azabicyclo[3.2.1]octane]",100
9,"CCC=Cc1cc(C(F)(F)F)ccc1OC1CC2CCC(C1)N2c1ccc(C(F)(F)F)cn1 (stereo not drawn) [2-186, 3α-[2-(buten-1-yl)-4-(trifluoromethyl)phenoxy]-8-[5-(trifluoromethyl)-2-pyridyl]-8-azabicyclo[3.2.1]octane]",100
10,"CCCC(O)c1cc(C(F)(F)F)ccc1OC1CC2CCC(C1)N2c1ccc(C(F)(F)F)cn1 (stereo not drawn) [2-184, 3α-[2-(1-hydroxybutyl)-4-(trifluoromethyl)phenoxy]-8-[5-(trifluoromethyl)-2-pyridyl]-8-azabicyclo[3.2.1]octane]",100
11,CCCc1cc(Cl)ccc1OC1CCN(c2ccc(C(F)(F)F)cn2)CC1 [1-57],100
12,C=CCCOc1cc(C(F)(F)F)ccc1OC1CC2CCC(C1)N2c1ccc(C(F)(F)F)cn1 (stereo not drawn) [2-144],100
13,CCOc1cc(C(F)(F)F)ccc1OC1CCN(c2ccc(Cl)cn2)CC1 [1-90],100
14,COCCOC(=O)c1cc(C(F)(F)F)ccc1OC1CC2CCC(C1)N2c1ccc(C(F)(F)F)cn1 (stereo not drawn) [2-230],100
15,FC(F)(F)c1ccc(N2C3CCC2CC(Oc2ccc(C(F)(F)F)cc2ON=C2CCCC2)C3)nc1 (stereo not drawn) [2-227],100
16,CCN(C)C(=O)c1cc(C(F)(F)F)ccc1O[C@@H]1[C@@H]2CC[C@H]1CN(c1ccc(C(F)(F)F)cn1)C2 [5-249],100
17,FC(F)(F)c1ccc(N2CCC(Oc3ccc(Br)cc3)CC2)nc1 [1-19],100
18,"COCOc1cc(C(F)(F)F)ccc1OC1CC2CCC(C1)N2c1ccc(C(F)(F)F)cn1 (stereo not drawn) [2-102, 3α-[2-methoxymethoxy-4-(trifluoromethyl)phenoxy]-8-[5-(trifluoromethyl)-2-pyridyl]-8-azabicyclo[3.2.1]octane]",100
19,CN(C)S(=O)(=O)Oc1cc(C(F)(F)F)ccc1OC1CC2CCC(C1)N2c1ccc(C(F)(F)F)cn1 (stereo not drawn) [2-155],100
20,CC(F)COc1cc(C(F)(F)F)ccc1OC1CC2CCC(C1)N2c1ccc(C(F)(F)F)cn1 (stereo not drawn) [2-181],100
21,CC#CCOc1cc(C(F)(F)F)ccc1OC1C2CCC1CN(c1ccc(C(F)(F)F)cn1)C2 (stereo not drawn) [5-232],100

row,Structure (SMILES),rate of killed adults [%]
1,FC(F)(F)c1ccc(N2CCC(Oc3ccc(C(F)(F)F)cc3OCCBr)CC2)nc1 [1-139],100
2,COCC(C)OC(=O)c1cc(C(F)(F)F)ccc1OC1CC2CCC(C1)N2c1ccc(C(F)(F)F)cn1 (stereo not drawn) [2-234],100
3,CCC(C)OCc1cc(C(F)(F)F)ccc1O[C@@H]1[C@@H]2CC[C@H]1CN(c1ccc(C(F)(F)F)cn1)C2 (stereo partly drawn) [5-242],100
4,CCCCOc1cc(C(F)(F)F)ccc1OC1CCN(c2ccc(C(F)(F)F)cn2)CC1 [1-101],100
5,CCCOc1cc(C(F)(F)F)cc(Cl)c1OC1CC2CCC(C1)N2c1ccc(C(F)(F)F)cn1 (stereo not drawn) [2-95],100
6,CCCOc1cc(C(F)(F)F)ccc1OC1CCN(c2ccc(C(F)(F)F)cn2)CC1CCC (stereo not drawn) [1-192],100
7,CCCOc1cc(C(F)(F)F)ccc1O[C@@H]1[C@@H]2CC[C@H]1CN(c1ccc(C=O)cn1)C2 [5-100],100
8,CC(OC(=O)c1cc(C(F)(F)F)ccc1OC1CC2CCC(C1)N2c1ccc(C(F)(F)F)cn1)C1CC1 (stereo not drawn) [2-239],100
9,CSCOc1cc(C(F)(F)F)ccc1OC1CC2CCC(C1)N2c1ccc(C(F)(F)F)cn1 (stereo not drawn) [2-182],100
10,CCCN(CCC)c1cc(C(F)(F)F)ccc1OC1CCN(c2ccc(C(F)(F)F)cn2)CC1 [1-174],100
11,CCC(C)Oc1cc(C(F)(F)F)ccc1OC1CC2CCC(C1)N2c1ccc(C(F)(F)F)cn1 (stereo not drawn) [2-177],100
12,COC(C)CCc1cc(C(F)(F)F)ccc1OC1CC2CCC(C1)N2c1ccc(C(F)(F)F)cn1 (stereo not drawn) [2-192],100
13,"COc1cc(C(F)(F)F)ccc1OC1CC2CCC(C1)N2c1ccc(C(F)(F)F)cn1 (stereo not drawn) [2-77, 3α-[2-methoxy-4-(trifluoromethyl)phenoxy]-8-[5-(trifluoromethyl)-2-pyridyl]-8-azabicyclo[3.2.1]octane]",100
14,FC(F)(F)c1ccc(N2CC3CCC(C2)C3Oc2ccc(C(F)(F)F)cc2OCC2CCCO2)nc1 (stereo not drawn) [5-204],100
15,FC(F)(F)c1ccc(N2CC3CCC(C2)C3Oc2ccc(C(F)(F)F)cc2OCC2CCO2)nc1 (stereo not drawn) [5-213],100
16,"C=C(C)COc1cc(C(F)(F)F)ccc1OC1CC2CCC(C1)N2c1ccc(C(F)(F)F)cn1 (stereo not drawn) [2-147, 3α-[2-(2-methylallyloxy)-4-(trifluoromethyl)phenoxy]-8-[5-(trifluoromethyl)-2-pyridyl]-8-azabicyclo[3.2.1]octane]",100
17,COCOCc1cc(O[C@@H]2[C@@H]3CC[C@H]2CN(c2ccc(C(F)(F)F)cn2)C3)ccc1C(F)(F)F [5-70],100
18,FC(F)(F)c1ccc(N2CC3CCC(C2)C3Oc2ccc(C(F)(F)F)cc2OCc2cccnc2)nc1 (stereo not drawn) [5-211],100
19,CCCOc1cc(C(F)(F)F)cc(Cl)c1OC1CCN(c2ccc(C(F)(F)F)cn2)CC1 [1-18],100
20,CCC(C)=NOc1cc(C(F)(F)F)ccc1OC1CC2CCC(C1)N2c1ccc(C(F)(F)F)cn1 (mixture of isomers) [2-226],100
21,CC(CBr)OC(=O)c1cc(C(F)(F)F)ccc1OC1CC2CCC(C1)N2c1ccc(C(F)(F)F)cn1 (stereo not drawn) [2-236],100

row,Structure (SMILES),rate of killed adults [%]
1,CCCOc1cc(C(F)(F)F)ccc1OC1CC2CCC(C1)N2c1ccc(C#N)cn1 (stereo not drawn) [2-93],100
2,COCCc1cc(C(F)(F)F)ccc1O[C@@H]1[C@@H]2CC[C@H]1CN(c1ccc(C(F)(F)F)cn1)C2 [5-246],100
3,CCC(=O)Oc1cc(C(F)(F)F)ccc1OC1C2CCC1CN(c1ccc(C(F)(F)F)cn1)C2 (stereo not drawn) [5-198],100
4,CCCOc1cc(C(F)(F)F)ccc1OC1CC2CCC(C1)N2c1ccc(C)cn1 (stereo not drawn) [2-89],100
5,CCC1COC(c2cc(C(F)(F)F)ccc2O[C@@H]2[C@@H]3CC[C@H]2CN(c2ccc(C(F)(F)F)cn2)C3)N1 (stereo partly drawn) [5-263],100
6,CCOc1cc(C(F)(F)F)ccc1OC1CCN(c2ccc(Br)cn2)CC1 [1-91],100
7,FC(F)(F)c1ccc(N2C[C@H]3CC[C@@H](C2)[C@@H]3Oc2ccc(C(F)(F)F)cc2OCc2ccccc2)nc1 [5-106],100
8,CCCOc1cc(C(F)(F)F)ccc1O[C@@H]1[C@@H]2CC[C@H]1CN(c1ccc(C#N)cn1)C2 [5-96],100
9,N#Cc1ccc(OC2CCN(c3ccc(C(F)(F)F)cn3)CC2)cc1 [1-29],100
10,O=C(OCC1CC1)c1cc(C(F)(F)F)ccc1OC1CC2CCC(C1)N2c1ccc(C(F)(F)F)cn1 (stereo not drawn) [2-237],100
11,O=[N+]([O-])c1cc(C(F)(F)F)ccc1O[C@@H]1[C@@H]2CC[C@H]1CN(c1ccc(C(F)(F)F)cn1)C2 [5-38],100
12,CC=NOc1cc(C(F)(F)F)ccc1OC1CC2CCC(C1)N2c1ccc(C(F)(F)F)cn1 (mixture of isomers) [2-213],100
13,Cc1cc(C)c(OC2CCN(c3ccc(C(F)(F)F)cn3)CC2)c(C)c1 [1-47],100
14,CC(=O)COc1cc(C(F)(F)F)ccc1O[C@@H]1[C@@H]2CC[C@H]1CN(c1ccc(C(F)(F)F)cn1)C2 [5-126],100
15,O=C(OCC(F)(F)F)c1cc(C(F)(F)F)ccc1OC1CC2CCC(C1)N2c1ccc(C(F)(F)F)cn1 (stereo not drawn) [2-240],100
16,CCCN(CCC)c1cc(C(F)(F)F)ccc1OC1CC2CCC(C1)N2c1ccc(C(F)(F)F)cn1 (stereo not drawn) [2-159],100
17,Cc1cnc(-c2cc(C(F)(F)F)ccc2OC2CC3CCC(C2)N3c2ccc(C(F)(F)F)cn2)o1 (stereo not drawn) [2-205],100
18,CCCN(C)c1cc(C(F)(F)F)ccc1OC1CC2CCC(C1)N2c1ccc(C(F)(F)F)cn1 (stereo not drawn) [2-161],100
19,COC(C)COc1cc(C(F)(F)F)ccc1OC1C2CCC1CN(c1ccc(C(F)(F)F)cn1)C2 (stereo not drawn) [5-128],100
20,CC(O)COc1cc(C(F)(F)F)ccc1OC1CC2CCC(C1)N2c1ccc(C(F)(F)F)cn1 (stereo not drawn) [2-173],100
21,CCCOc1cc(C#N)ccc1OC1CC2CCC(C1)N2c1ccc(C(F)(F)F)cn1 (stereo not drawn) [2-81],100

# — patent US8101768B2, “Cyclic amine compound and pest control agent” (Nippon Soda Co., Ltd., priority 2004, dated 2012)
